Assay [1] has as its target Recombinant human PKC-theta (His-tagged 362-706) (Homo sapiens (Human), UniProt Q04759). Put plainly: PKC-theta inhibition assay (HTRF KinEASE kit). Type of assay: biochemical. To be noted: ATP 6.5 μM. The protocol: (§1) PKC-theta and PKC-delta biochemical activities were measured using the PKC-theta HTRF KinEASEkit kit, according to manufacturer's instructions (Cisbio, catalogue number 61ST1PEJ). Briefly, the kinase buffer component of the kit was supplemented with 10 mM MgCl2, 1 mM DTT and 0.1% Tween 20. For the PKC-theta assay, STK substrate and ATP were added to provide a final assay concentration of 525 nM and 6.5 μM, respectively. For the PKC-delta assay, STK substrate and ATP were added to provide a final assay concentration of 243 nM and 5.7 μM, respectively. The streptavidin_XL665 and STK antibody-cryptate detection reagents were mixed according to the manufacturer's instructions. Test compounds were diluted in DMSO in a series of 10 semi-log step doses; 10 nL of each compound dose were dispensed in 384 well plates. Recombinant human PKC-theta (His-tagged 362-706) or PKC-delta (His-tagged 345-676) was diluted into kinase buffer to provide a final assay concentration of 10 ng/ml and added to the test compound for 30 minutes on ice. The reaction was started by addition of the substrate and ATP and incubated at 25° C. for 30 minutes or 20 minutes for the PKC-theta and PKC-delta assays, respectively. The detection reagents were added, and the plate was incubated in the dark for 2 hours. Fluorescence was measured on an Envision 2103 plate reader with optical setup for […] in the HTRF mode. The ratio of acceptor and donor emission signals was calculated for each well. Percent inhibition values were calculated from the HTRF ratios at different doses and fitted to a 4-parameter logistic curve to determine IC50 values (see Table 1).

In assay [2] the test system is IL-2 secretion by human effector memory T cells (TEM). Put plainly: Effector memory T cells IL-2 release assay. The class given is cell-based. Conditions: T-cell, human CD4+ TEM cells, CD3/CD28 bead stimulation, 24 h. The protocol:
Test compound-mediated inhibition of NFκB signalling in T cells was assessed by quantification of the IL-2 secretion by human effector memory T cells (TEM) upon treatment and stimulation. Human TEM cells were isolated from buffy coats of healthy donors obtained from the French blood bank. First, peripheral blood mononuclear cells (PBMC) were purified from buffy coats diluted 1:1 with DPBS (Gibco, cat #14190-094) by Pancoll (PAN BIOTECH, cat #P04-60500) density gradient centrifugation at 400×g for 20 minutes. TEM cells were further enriched by negative immuno-magnetic cell sorting using a human CD4+ Effector Memory T Cell Isolation Kit (Miltenyi, cat #130-094-125) according to the manufacturer's instructions. Aliquots of 3×10E6 purified TEM cells were kept frozen in Cryo-SFM medium (PromoCell, cat #C-29912) in gas phase nitrogen until used. Cell purity was verified by flow cytometry analysis of 200 000 PFA-fixed cells previously labelled with monoclonal antibodies anti-CD4-PerCP-Cy5.5 (BD Pharmigen, cat #332772), anti-CD8-V500 (BD Biosciences, cat #561617), anti-CD14-Pacific Blue (Biolegend, cat #325616), anti-CD45 RA-FITC (Biolegend, cat #304106) and anti-CCR7-APC (in CD4+ Effector Memory T Cell Isolation Kit, Miltenyi, cat #130-094-125).
TEM cells were resuspended in complete RPMI medium composed of: RPMI 1640 (Gibco, cat #31870-025), 10% heat inactivated fetal bovine serum (Sigma, cat #F7524), 2 mM GlutaMAX (Gibco, cat #35050-038), 1 mM sodium pyruvate 100× (Gibco, cat #11360-039), 1% MEM non-essential amino acids solution (Gibco, cat #11140-035) and 100 U/mL penicillin, 100 µg/mL streptomycin (Sigma-Aldrich, cat #11074440001). 5,000 cells per well were plated onto flat clear bottom 384 well plates (Corning, cat #3770). 5,000 Dynabeads Human T-Activator CD3/CD28 (Gibco, cat #11132D) were added to each well for cell stimulation. Finally, 10 doses of test compound, originally prepared in DMSO by serial semi-log step dilution, were also added to cells in triplicate wells. Final DMSO concentration in wells was 0.1% in a total volume of 100 µL complete medium. Plates were incubated for 24 h at 37° C. in 5% CO2 atmosphere. After incubation, cell suspensions were centrifuged at 400×g and culture supernatants were recovered and stored at −80° C. Cell viability was assessed by flow cytometry after staining the cells with Fixable Viability Dye eFluor 780 (Invitrogen, cat #65-0865-14). IL-2 levels were determined in cell supernatants using an HTRF human IL-2 detection kit (Cisbio, cat #62HIL02PEH). IL-2 data at the different compound doses were fitted to a 4-parameter logistic curve to determine IC50 values, corresponding to the compound concentration leading to 50% reduction of the maximal IL-2 levels observed in each experiment. Viability data were analysed similarly to exclude cytotoxicity as a cause of IL-2 decrease (see Table 1).

For assay [3], the target named is Recombinant human PKC-delta (His-tagged 345-676) (Homo sapiens (Human), UniProt Q05655). Put plainly: PKC-delta inhibition assay (HTRF KinEASE kit), PKC-theta/PKC-delta selectivity. To be noted: ratio; for PKC-theta/PKC-delta selectivity: PKC-theta over PKC-delta, HTRF assays; for PKC-theta/PKC-delta selectivity (binned): binned A to G. Type of assay: biochemical. The protocol: as §1

The mark [4] stands for this setting: binned A to H, read-out: PKC-theta HTRF pIC50 (binned) (converted).
[5] abbreviates: read-out: PKC-theta HTRF pIC50 (converted).
Setting [6] is: binned A to G, read-out: PKC-theta IL2 pIC50 (binned) (converted).
The mark [7] stands for this setting: read-out: PKC-theta IL2 pIC50 (converted).

Like-named read-outs stand apart in the source and are kept apart here. Bounds are passed on as bounds.

Sequence of Recombinant human PKC-theta (His-tagged 362-706) (Q04759 362-706): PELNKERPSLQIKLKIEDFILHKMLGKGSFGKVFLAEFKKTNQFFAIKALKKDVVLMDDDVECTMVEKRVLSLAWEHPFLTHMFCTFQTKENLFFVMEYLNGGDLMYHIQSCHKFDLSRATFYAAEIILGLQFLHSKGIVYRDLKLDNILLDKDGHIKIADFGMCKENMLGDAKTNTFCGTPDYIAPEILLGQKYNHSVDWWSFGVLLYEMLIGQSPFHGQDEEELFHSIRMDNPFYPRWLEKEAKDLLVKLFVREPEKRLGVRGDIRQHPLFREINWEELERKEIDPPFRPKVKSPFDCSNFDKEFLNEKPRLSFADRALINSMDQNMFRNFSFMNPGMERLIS
Sequence of Recombinant human PKC-delta (His-tagged 345-676) (Q05655 345-676): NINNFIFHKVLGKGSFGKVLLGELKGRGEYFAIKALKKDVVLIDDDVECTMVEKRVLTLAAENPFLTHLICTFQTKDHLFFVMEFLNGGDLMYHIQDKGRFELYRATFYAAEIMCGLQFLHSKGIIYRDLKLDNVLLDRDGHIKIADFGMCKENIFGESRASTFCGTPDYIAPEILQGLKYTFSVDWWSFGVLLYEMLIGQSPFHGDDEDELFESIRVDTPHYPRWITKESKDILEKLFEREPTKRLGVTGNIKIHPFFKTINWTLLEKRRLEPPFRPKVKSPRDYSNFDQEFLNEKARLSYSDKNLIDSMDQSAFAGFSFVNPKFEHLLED

Take `C[C@@]1(O)C(=O)Nc2nccc(-c3nn(C4(CC#N)CCC4)c4cc(F)ccc34)c21` (single isomer, unassigned) [Example 59]: the IC50 in assay [1] (setting [4]) is at most 1 nM; in assay [1] (setting [5]), 0.631 nM; in assay [2] (setting [6]), 10 to 31.6 nM; in assay [2] (setting [7]) it was 20 nM. Besides, the PKC-theta/PKC-delta selectivity in assay [3] amounted to 11. Also, the “PKC-theta/PKC-delta selectivity (binned)” value in assay [3] was “D (D means a ratio of between 10 and 20)”.
As for `C[C@@]1(O)C(=O)Nc2nccc(-c3nn(C4(CC#N)CCC4)c4ncccc34)c21` (single isomer, unassigned) [Example 60], the IC50 is 3.16 to 10 nM in assay [1] (setting [4]), 3.98 nM in assay [1] (setting [5]), 100 to 316 nM in assay [2] (setting [6]) and 100 nM in assay [2] (setting [7]). Moreover, the PKC-theta/PKC-delta selectivity in assay [3] is 8. The “PKC-theta/PKC-delta selectivity (binned)” value in assay [3] was “E (E means a ratio of between 5 and 10)”.
`C[C@]1(O)C(=O)Nc2nccc(-c3nn(C4(CC#N)CCC4)c4cc(C(F)(F)F)ccc34)c21` (single isomer, unassigned) [Example 64]: the IC50 is 1 to 3.16 nM in assay [1] (setting [4]), 2.51 nM in assay [1] (setting [5]), 31.6 to 100 nM in assay [2] (setting [6]) and 79.4 nM in assay [2] (setting [7]). For the same molecule, the PKC-theta/PKC-delta selectivity in assay [3] is on record as 28. Also, in assay [3], the “PKC-theta/PKC-delta selectivity (binned)” value was “C (C means a ratio of between 20 and 30)”.
On to `CC[C@]1(C)C(=O)Nc2nccc(-c3nn([C@H]4CCNC4)c4ccccc34)c21` (single isomer, unassigned) [Example 65], for which the IC50 is 31.6 to 100 nM in assay [1] (setting [4]), 50.1 nM in assay [1] (setting [5]), 316 to 1000 nM in assay [2] (setting [6]) and 398 nM in assay [2] (setting [7]). The PKC-theta/PKC-delta selectivity in assay [3] amounted to 28. For the same molecule, the “PKC-theta/PKC-delta selectivity (binned)” value in assay [3] was “C (C means a ratio of between 20 and 30)”.
Regarding `CC[C@@]1(C)C(=O)Nc2nccc(-c3nn([C@H]4CCNC4)c4ccccc34)c21` (single isomer, unassigned) [Example 66], the IC50 in assay [1] (setting [4]) is 3.16 to 10 nM; in assay [1] (setting [5]), 3.98 nM; in assay [2] (setting [6]) it was 31.6 to 100 nM; in assay [2] (setting [7]), 100 nM. In addition, the PKC-theta/PKC-delta selectivity in assay [3] is listed as 21. Besides, in assay [3], the “PKC-theta/PKC-delta selectivity (binned)” value was “C (C means a ratio of between 20 and 30)”.
In the case of `CC[C@@]1(O)C(=O)Nc2nccc(-c3nn(C4(CC#N)CCC4)c4ccccc34)c21` (single isomer, unassigned) [Example 68], the IC50 in assay [1] (setting [4]) was at most 1 nM; in assay [1] (setting [5]) it was 0.251 nM; in assay [2] (setting [6]), 10 to 31.6 nM; in assay [2] (setting [7]), 10 nM. Besides, the PKC-theta/PKC-delta selectivity in assay [3] is on record as 12. Also, in assay [3], the “PKC-theta/PKC-delta selectivity (binned)” value was “D (D means a ratio of between 10 and 20)”.
Regarding `CC[C@]1(O)C(=O)Nc2nccc(-c3nn(C4(CC#N)CCC4)c4ccccc34)c21` (single isomer, unassigned) [Example 69], the IC50 in assay [1] (setting [4]) was 31.6 to 100 nM; in assay [1] (setting [5]), 100 nM; in assay [2] (setting [6]) it was over 1000 nM; in assay [2] (setting [7]), 1260 nM. Also, the PKC-theta/PKC-delta selectivity in assay [3] amounted to 9. Besides, the “PKC-theta/PKC-delta selectivity (binned)” value in assay [3] is “E (E means a ratio of between 5 and 10)”.
Regarding `CO[C@]1(C)C(=O)Nc2nccc(-c3nn(CC4(F)CCNCC4)c4ccccc34)c21` (single isomer, unassigned) [Example 75], the IC50 in assay [1] (setting [4]) is 1 to 3.16 nM; in assay [1] (setting [5]), 2 nM; in assay [2] (setting [6]), 31.6 to 100 nM; in assay [2] (setting [7]) it was 50.1 nM. Moreover, in assay [3], the PKC-theta/PKC-delta selectivity is on record as 19. In assay [3], the “PKC-theta/PKC-delta selectivity (binned)” value was “D (D means a ratio of between 10 and 20)”.
For the molecule `CO[C@]1(C)C(=O)Nc2nccc(-c3nn(CC4(F)CCNCC4)c4cc(F)ccc34)c21` (single isomer, unassigned) [Example 76], the IC50 in assay [1] (setting [4]) is 1 to 3.16 nM; in assay [1] (setting [5]), 3.16 nM; in assay [2] (setting [6]), 31.6 to 100 nM; in assay [2] (setting [7]) it was 100 nM. The PKC-theta/PKC-delta selectivity in assay [3] amounted to 22. For the same molecule, the “PKC-theta/PKC-delta selectivity (binned)” value in assay [3] is “C (C means a ratio of between 20 and 30)”.
On to `CO[C@@]1(C)C(=O)Nc2nccc(-c3nn(CC4(F)CCNCC4)c4ccccc34)c21` (single isomer, unassigned) [Example 78], for which the IC50 in assay [1] (setting [4]) was at most 1 nM; in assay [1] (setting [5]), 1 nM; in assay [2] (setting [6]) it was 31.6 to 100 nM; in assay [2] (setting [7]) it was 50.1 nM. Besides, the PKC-theta/PKC-delta selectivity in assay [3] was 10. Further, the “PKC-theta/PKC-delta selectivity (binned)” value in assay [3] was “D (D means a ratio of between 10 and 20)”.
On to `CO[C@@]1(C)C(=O)Nc2nccc(-c3nn(CC4(F)CCNCC4)c4cc(F)ccc34)c21` (single isomer, unassigned) [Example 79], for which the IC50 in assay [1] (setting [4]) was 1 to 3.16 nM; in assay [1] (setting [5]) it was 1.26 nM; in assay [2] (setting [6]), 31.6 to 100 nM; in assay [2] (setting [7]), 50.1 nM. For the same molecule, in assay [3], the PKC-theta/PKC-delta selectivity is reported as 15. In assay [3], the “PKC-theta/PKC-delta selectivity (binned)” value is “D (D means a ratio of between 10 and 20)”.
On to `CO[C@@]1(C)C(=O)Nc2nccc(-c3nn(C4(CC#N)CCC4)c4ccccc34)c21` (single isomer, unassigned) [Example 80], for which the IC50 in assay [1] (setting [4]) was at most 1 nM; in assay [1] (setting [5]), 0.794 nM; in assay [2] (setting [6]), 10 to 31.6 nM; in assay [2] (setting [7]) it was 20 nM. Further, in assay [3], the PKC-theta/PKC-delta selectivity was 9. In addition, the “PKC-theta/PKC-delta selectivity (binned)” value in assay [3] is “E (E means a ratio of between 5 and 10)”.
Take `CO[C@]1(C)C(=O)Nc2nccc(-c3nn(C4(CC#N)CCC4)c4ccccc34)c21` (single isomer, unassigned) [Example 81]: the IC50 in assay [1] (setting [4]) is 31.6 to 100 nM; in assay [1] (setting [5]), 31.6 nM; in assay [2] (setting [6]), 316 to 1000 nM; in assay [2] (setting [7]) it was 794 nM. Also, the PKC-theta/PKC-delta selectivity in assay [3] was 20. Moreover, the “PKC-theta/PKC-delta selectivity (binned)” value in assay [3] is “C (C means a ratio of between 20 and 30)”.
With `CC[C@@]1(O)C(=O)Nc2nccc(-c3nn([C@H]4CCNC[C@H]4F)c4ccccc34)c21` (single isomer, unassigned) [Example 82], the IC50 in assay [1] (setting [4]) is at most 1 nM; in assay [1] (setting [5]), 0.794 nM; in assay [2] (setting [6]) it was 31.6 to 100 nM; in assay [2] (setting [7]), 50.1 nM. In addition, in assay [3], the PKC-theta/PKC-delta selectivity turned out to be 12. Further, the “PKC-theta/PKC-delta selectivity (binned)” value in assay [3] is “D (D means a ratio of between 10 and 20)”.

The values above are taken from US20240239794A1, “PKC-Theta Modulators” (Exscientia AI Limited, priority 2021, published 2024).
